Data on nine compounds can be found in patent US20260216347A1, “Substituted Imidazo-Based Compounds as Ligand Directed Degraders of IRAK3” (Celgene Corporation, priority 2022, published 2026).

A word on the IC50: it is the concentration that gives 50% inhibition. Low values mean inhibition by little substance, high ones a need for much substance.

The target in one assay is T1, IRAK3-ePL (Homo sapiens, UniProt Q9Y616).
T1 construct: expressed in transfected cells; host or cells: 293T CRBN OE/GSPT1 G575N KI cells, lentiviral transduction, puromycin selected
Nature of the assay: IRAK3-ePL overexpressing degradation assay (InCELL Hunter luminescence, dose response). To be noted: for IRAK3 ePL degradation Ymin: lowest percentage of target protein remaining following compound treatment; for DC50: read-out: IRAK3 ePL degradation EC50. Type of assay: cell-based. The method, then:
Example B1. IRAK3-ePL Overexpressing Degradation Assay
Stable cell lines were generated by the following protocol. 3×10^5 Lenti-X 293T cells (Clonetech) were plated in 0.8 mL of media in a 12-well plate and incubated overnight at 37° C./5% CO2. Packaging plasmid (0.4 μg, pMD), envelope plasmid (0.4 μg, pSP), and lentiviral transfer IRAK3-ePL plasmid (0.8 μg, TRAK3 sequence NM_007199.3) were mixed in 0.1 mL of Opti-MEM and incubated for 5 min. Simultaneously, 2.4 μL of Lipofectamine 2000 (Invitrogen) was added to 0.1 mL of Opti-MEM (Gibco) and incubated for 5 min. The plasmid DNA and lipofectamine were combined and the mixture was allowed to incubate for 20 min.DNA:Lipofectamine Opti-MEM mixtures were then added to previously plated cells dropwise and the cells were incubated for ~16 h at 37° C./5% CO2. Following incubation, the media was removed and 1.2 mL of fresh media was added per well. Lenti-X 293T cells were incubated for ~30 h at 37° C./5% CO2. […] Following incubation, media was removed from the Lenti-X 293T wells and passed through a […] filter. Part of the viral supernatant was used to transduce cells and the rest was stored at −80° C. Viruses were then added individually (0.5 mL virus) to each well of the 293T^CRBN OE/GSPT1 G575N KI cells, followed by addition of polybrene (10 mg/mL Millipore) to each well at a final concentration of 5.0 μg/mL. Cells were incubated for ~24 h at 37° C./5% CO2. After aspirating media off plates, cells were washed with DPBS, trypsinized and plated in a 10 cm dish in 15 mL of media and […] puromycin. Following incubation of cells for ~72 h at 37° C./5% CO2, media was aspirated off plates, and cells were washed with DPBS and trypsinized. The cells were plated in a 15 cm dish in 40 mL of media with 1.0 μg/mL Puromycin (Gibco) and incubated for ~72 h at 37° C./5% CO2. Following incubation, media was removed and cells were washed with DPBS and trypsinized. The majority of cells were resuspended in Invitrogen freezing media and stored away (~6-8×10^6 cells/vial).
IRAK3-ePL cellular dose response curve degradation assays were performed by the following protocol. Compounds to be tested were dispensed into a white 384-well tissue-culture treated plate using an acoustic liquid handler. Dilutions were prepared based on a 25 μL assay volume in duplicate 10 point 3-fold serial dilutions starting with a 10 μM dose. Negative control wells were included, which only contain 0.2% DMSO to calculate 100% signal. Positive control wells containing 30 μM Ataluren (luciferase inhibitor) were included to calculate the background signal level. All wells were backfilled to a final DMSO concentration of 0.2% to ensure DMSO uniformity across wells. IRAK3-ePL expressing cells (IRAK3-ePL Lenti-X 293T^CRBN/GSPT1 G575N) were washed, trypsinized, counted, and resuspended in fresh DMEM (Gibco) to give a cell concentration of 200,000 cells/mL. 25 μL of cells (5,000 cells/well) were dispensed into the wells of the 384-well plate prespotted with compounds in the previous step and incubated overnight at 37° C./5% CO2. Following incubation, the 384-well plate was taken out of the incubator and left at room temperature for 30 min. InCELL hunter reagent was prepared according to manufacturer's instructions (EA reagent, lysis buffer, and substrate reagent in a 1:1:4 ratio, Cat #96-0002, DiscoverX), which was added to the 384-well plate 25 μL per well. Following the incubation of the plate for 1 h at room temperature, the luminescence signal was read using a ViewLux plate reader. Data was processed and analyzed in ActivityBase software. In short, the average luminescence values of the positive control wells were subtracted from the rest of the wells for background correction, and all luminescence values were normalized to the DMSO control wells. The average value of the DMSO control wells was set to equal 100% of the relative IRAK3-ePL protein levels. […]

For assay [1], the target named is T2, IRAK3 (Homo sapiens, UniProt Q9Y616).
T2 construct: IRAK Endogenous HTRF Degradation Assay; endogenous in cells
T2 sequence (Q9Y616 1-596): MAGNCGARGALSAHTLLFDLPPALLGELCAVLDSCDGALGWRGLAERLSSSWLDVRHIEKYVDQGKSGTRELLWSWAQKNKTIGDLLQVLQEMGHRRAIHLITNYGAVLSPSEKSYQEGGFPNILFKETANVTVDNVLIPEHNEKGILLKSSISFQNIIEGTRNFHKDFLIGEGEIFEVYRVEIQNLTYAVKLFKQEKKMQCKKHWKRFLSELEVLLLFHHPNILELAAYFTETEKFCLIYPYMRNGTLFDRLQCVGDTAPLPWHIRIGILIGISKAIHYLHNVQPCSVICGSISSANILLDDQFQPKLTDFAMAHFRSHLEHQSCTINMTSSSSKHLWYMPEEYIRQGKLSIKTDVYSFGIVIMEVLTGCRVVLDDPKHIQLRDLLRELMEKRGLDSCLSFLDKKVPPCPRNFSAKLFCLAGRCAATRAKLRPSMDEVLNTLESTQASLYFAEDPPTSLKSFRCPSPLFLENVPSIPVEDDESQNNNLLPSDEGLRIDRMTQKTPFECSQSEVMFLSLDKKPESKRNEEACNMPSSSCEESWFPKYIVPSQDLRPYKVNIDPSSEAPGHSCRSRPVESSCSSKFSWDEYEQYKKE
As to the kind of experiment: IRAK endogenous HTRF degradation assay (Total-IRAK3 HTRF kit). Type of assay: cell-based. To be noted: overnight incubation, lowest percentage of protein remaining. The method, then: Example B2. IRAK Endogenous HTRF Degradation Assay
Cells (~50 k) were plated in Cisbio 96-well low volume white plates (Cisbio: cat #66PL96005). Compounds were dissolved in DMSO and a 3-fold serial dilution was performed using a TECAN D300E. Cells were incubated with the compound overnight. Total-IRAK3 HTRF kit from Cisbio was used for degradation analysis (Cisbio: 63ADK101PEH). Cryptate and D2 antibodies were diluted in Detection buffer as per manufacturers recommendation. Then 2 μL of each solution was added to 16 μL lysate. Buffer control (lysis buffer detection buffer), Cryptate control (lysis buffer+cryptate antibody+detection buffer), and Negative control (lysis buffer+cryptate antibody+D2 antibody) were made as per manufacturers recommendation. Post incubation with antibodies the HTRF signal was measured using a Perkin Elmer Envision reader and the HTRF signal was calculated using formula: (Emission at 665 nm/Emission at 615 nm)*10,000. All HTRF values were normalized to the average value of DMSO. The average value of the DMSO control wells were set to equal 100% of the relative IRAK3 protein levels. Normalized luminescence values were plotted on a graph as a function of compound concentration. Compound concentration was plotted on the x-axis and the corresponding normalized IRAK3 protein levels on the y-axis. The EC50 value (the half-maximum effective concentration) of a compound for the degradation of the IRAK3 was calculated using a four-parameter logistic model (sigmoidal dose-response model) (FIT=(A+{(B−A)/1+[(C/x)D]})) where C is the inflection point (EC50), D is the […], and A and B are the low and high limits of the fit, respectively). The Ymin was calculated by determining the lowest percentage of target protein remaining following compound treatment. Dmax was calculated from Ymin (% Dmax=100−Ymin).
Using these assays, IC50, Dmax, EC50, and DC50 values of the following compounds were determined. Dmax is defined as the maximum percent degradation achieved and DC50 is the concentration at which 50% degradation is achieved.
In general terms: Time-resolved FRET reads energy transfer from a long-lived donor to a nearby acceptor.

The target in assay [2] is T2, IRAK3. As to the kind of experiment: IRAK3 biochemical binding assay (LanthaScreen Eu Kinase Binding, TR-FRET). The method, boiled down: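 TR-FRET tracer-displacement binding with 10 nM IRAK3, 2 nM Eu-anti-GST antibody and 10 nM tracer in 50 mM HEPES pH 7.4, MgCl2, 1 mM EGTA, 0.01% Brij-35. Compounds in 3-fold dilutions, 1 h at room temperature. 665/615 nm ratio gave % inhibition; IC50 and Hill slope from dose-response fit.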

For `Cc1cc(-c2cnc(Nc3cnn([C@H]4CC[C@H](CCN5CCN(c6ccc(C7CCC(=O)NC7=O)cc6)C[C@@H]5C)CC4)c3)c3nccn23)c(F)cc1F` (stereo partly drawn) [Compound 57, 3-(4-((S)-4-(2-((trans)-4-(4-((5-(2,4-difluoro-5-methylphenyl)imidazo[1,2-a]pyrazin-8-yl)amino)-1H-pyrazol-1-yl)cyclohexyl)ethyl)-3-methylpiperazin-1-yl)phenyl) piperidine-2,6-dione], at IRAK3-ePL, the “IRAK3 ePL degradation Ymin” value worked out at 24% and the DC50 came out at 5.7 nM. Besides, the “IRAK3 HTRF degradation Ymin” value on IRAK3 [1] is 8.72%.
Regarding `O=C1CCC(N2C(=O)c3ccc(N4CCN(C(=O)CN5CCC(n6cc(Nc7ncc(-c8ccc9c(c8)NC(=O)CO9)n8ccnc78)cn6)CC5)CC4)cc3C2=O)C(=O)N1` (stereo not shown) [Compound 21, 2-(2,6-dioxopiperidin-3-yl)-5-(4-(2-(4-(4-((5-(3-ox0-3,4-dihydro-2H-benzo[b][1,4]oxazin-6-yl)imidazo[1,2-a]pyrazin-8-yl)amino)-1H-pyrazol-1-yl)piperidin-1-yl)acetyl)piperazin-1-yl)isoindoline-1,3-dione], the “IRAK3 HTRF degradation Ymin” value on IRAK3 [1] is 25%.
For `CN1CCOc2ccc(-c3cnc(Nc4cnn([C@H]5CC[C@H](CCN6CCN(c7ccc(C8CCC(=O)NC8=O)cc7)CC6)CC5)c4)c4nccn34)cc21` (stereo partly shown) [Compound 40], on IRAK3-ePL, the “IRAK3 ePL degradation Ymin” value worked out at 24% and the DC50 worked out at 1.5 nM. The “IRAK3 HTRF degradation Ymin” value at IRAK3 [1] is on record as 8.5%.
Consider `Cn1cc(-c2cnc(Nc3cnn(C4CCN(CCN5CCN(c6ccc(C7CCC(=O)NC7=O)cc6)CC5)CC4)c3)c3nccn23)cn1` (stereo not shown) [Compound 73, 3-(4-(4-(2-(4-(4-((5-(1-methyl-1H-pyrazol-4-yl)imidazo[1,2-a]pyrazin-8-yl)amino)-1H-pyrazol-1-yl)piperidin-1-yl)ethyl)piperazin-1-yl)phenyl) piperidine-2,6-dione], for which, on IRAK3-ePL, the “IRAK3 ePL degradation Ymin” value was found to be 24% and the DC50 was determined as 0.51 nM. In addition, on IRAK3 [1], the “IRAK3 HTRF degradation Ymin” value came to 9.1%.
The matching figures for `Cc1cc(-c2cnc(Nc3cnn(C4CCN(CCN5[C@H](C)CN(c6ccc(C7CCC(=O)NC7=O)cc6)C[C@H]5C)CC4)c3)c3nccn23)c(F)cc1F` (stereo partly drawn) [Compound 58, 3-(4-((3R,5R)-4-(2-(4-(4-((5-(2,4-difluoro-5-methylphenyl)imdazo [1,2-a]pyrazin-8-yl)amino)-1H-pyrazol-1-yl)piperidin-1-yl)ethyl)-3,5-dimethylpiperazin-1-yl)phenyl) piperidine-2,6-dione]: 25%, 0.98 nM and 9.7%.
With `Cc1cc(-c2cnc(Nc3cnn(C4CCN(CCN5CCN(c6ccc(C7CCC(=O)NC7=O)cc6)CC5)CC4)c3)c3ncc(C)n23)c(F)cc1F` (stereo not shown) [Compound 61, 3-(4-(4-(2-(4-(4-((5-(2,4-difluoro-5-methylphenyl)-3-methylimidazo[1,2-a]pyrazin-8-yl)amino)-1H-pyrazol-1-yl)piperidin-1-yl)ethyl)piperazin-1-yl)phenyl) piperidine-2,6-dione], at IRAK3-ePL, the “IRAK3 ePL degradation Ymin” value was determined as 41% and the DC50 was 18 nM. Also, the “IRAK3 HTRF degradation Ymin” value at IRAK3 [1] was found to be 20%.
The matching figures for `Cc1cc(-c2cnc(Nc3cnn(C4CCN(CCN5CCN(c6ccc(C7CCC(=O)NC7=O)cc6)[C@@H](C)C5)CC4)c3)c3nccn23)c(F)cc1F` (stereo partly drawn) [Compound 44, 3-(4-((S)-4-(2-(4-(4-((5-(2,4-difluoro-5-methylphenyl)imdazo [1,2-a]pyrazin-8-yl)amino)-1H-pyrazol-1-yl)piperidin-1-yl)ethyl)-2-methylpiperazin-1-yl)phenyl) piperidine-2,6-dione]: 26%, 0.97 nM and 8.1%.
For `CS(=O)(=O)c1ccccc1-c1cnc(Nc2cnn(C3CCN(CCN4CCN(c5ccc(C6CCC(=O)NC6=O)cc5)CC4)CC3)c2)c2nccn12` (stereo not shown) [Compound 83, 3-(4-(4-(2-(4-(4-((5-(2-(methylsulfonyl)phenyl)imidazo[1,2-a]pyrazin-8-yl)amino)-1H-pyrazol-1-yl)piperidin-1-yl)ethyl)piperazin-1-yl)phenyl) piperidine-2,6-dione], on IRAK3-ePL, the “IRAK3 ePL degradation Ymin” value came out at 90%. Besides, the IC50 at IRAK3 [2] was found to be 1600 nM.
For `Cc1cc(-c2cnc(Nc3cnn(C4CCN(C(=O)CN5CCN(c6ccc(C7CCC(=O)NC7=O)cc6)CC5)CC4)c3)c3nccn23)c(F)cc1F` (stereo not shown) [Compound 23, 3-(4-(4-(2-(4-(4-((5-(2,4-difluoro-5-methylphenyl)imidazo[1,2-a]pyrazin-8-yl)amino)-1H-pyrazol-1-yl)piperidin-1-yl)-2-oxoethyl)piperazin-1-yl)phenyl)piperidine-2,6-dione], at IRAK3 [1], the “IRAK3 HTRF degradation Ymin” value is given as 17%.
